Where two headings read alike, the source gives them in different places.
Key:
[1] = system: HEK293 FOP control reporter cell line; assay: HEK293 FOP control reporter assay; type: cell-based, human; conditions: read-out: HEK FOP IC50
Protocol: Measurement of luciferase expression was done as described for the constitutive active Wnt assay.
(§1) In a parallel approach, HEK293 cells were cotransfected with the FOP control vector and pcDNA3. The FOP vector is identical to the TOP construct, but it contains instead of functional TCF elements a randomized, non-functional sequence. For this transfection a stable transfected cell line was generated as well, based on selection with Geneticin (1 mg/ml).

[2] = system: constitutive active colorectal cancer cell (CRC) Wnt pathway; assay: HCT116 TOPFlash cellular reporter assay (Super TopFlash luciferase), constitutive active Wnt pathway; type: cell-based; conditions: HCT116 TOP reporter cells, 36 hours incubation, luciferase expression
Protocol: In order to discover and characterize small molecules which inhibit the constitutive active colorectal cancer cell (CRC) Wnt pathway, a cellular reporter assay was employed. […] Stable transfectants were generated by cotransfection with pcDNA3 and selection of stable transfected cells with 1 mg/ml G418.

[3] = system: HCT116 FOP control reporter cell line; assay: HCT116 FOPFlash control reporter assay (FOP control vector, non-functional TCF elements); type: cell-based; conditions: HCT116 FOP control reporter cells, 36 hours incubation, luciferase expression
Source text: as §1, with “HCT116” for “HEK293”, “well.” for “well, based on selection with Geneticin (1 mg/ml).”

| SMILES | IC50 ([1]; Homo sapiens, HEK293, 16 h) [µM] | other results |
| --- | --- | --- |
| O=C(CN1CCN(C2CC2)CC1)Nc1cc(C(=O)Nc2nnc(-c3ccccc3)s2)ccc1OC(F)(F)F [Example 53, 3-{[(4-cyclopropylpiperazin-1-yl)acetyl]amino}-N-(5-phenyl-1,3,4-thiadiazol-2-yl)-4-(trifluoromethoxy)benzamide] | ≥ 50 |  |
| O=C(Nc1ccc(-c2ccccc2F)nc1)c1ccc(OC(F)(F)F)c(NC(=O)C2(N3CCOCC3)CC2)c1 [Example 68, N-[6-(2-fluorophenyl)pyridin-3-yl]-3-({[1-(morpholin-4-yl)cyclopropyl]carbonyl}amino)-4-(trifluoromethoxy)benzamide] | ≥ 50 |  |
| O=C(Nc1ccc(-c2ccccc2)cn1)c1ccc(OC(F)(F)F)c(NC(=O)C2(N3CCOCC3)CC2)c1 [Example 95, 3-({[1-(morpholin-4-yl)cyclopropyl]carbonyl}amino)-N-(5-phenylpyridin-2-yl)-4-(trifluoromethoxy)benzamide] | ≥ 50 |  |
| NC(=O)c1ccc(C(=O)Nc2ccc(-c3ccccc3F)nc2)cc1NC(=O)C1(N2CCOCC2)CC1 [Example 75, N^4-[6-(2-fluorophenyl)pyridin-3-yl]-2-({[1-(morpholin-4-yl)cyclopropyl]carbonyl}amino)terephthalamide] | ≥ 50 |  |
| O=C(Nc1ccc(-c2cc(F)cc(F)c2)nc1)c1ccc(OC(F)(F)F)c(NC(=O)C2(N3CCOCC3)CC2)c1 [Example 71, N-[6-(3,5-difluorophenyl)pyridin-3-yl]-3-({[1-(morpholin-4-yl)cyclopropyl]carbonyl}amino)-4-(trifluoromethoxy)benzamide] | ≥ 50 |  |
| COc1ccc(NC(=O)c2ncc(-c3ccccc3)o2)cc1NC(=O)CN1CCOCC1 [Example 20, N-{4-methoxy-3-[(morpholin-4-ylacetyl)amino]phenyl}-5-phenyl-1,3-oxazole-2-carboxamide] | ≥ 50 |  |
| CN1CCN(C2(C(=O)Nc3cc(C(=O)Nc4nnc(-c5ccccc5)s4)ccc3CS(C)(=O)=O)CC2)CC1 [Example 49, 3-({[1-(4-methylpiperazin-1-yl)cyclopropyl]carbonyl}amino)-4-[(methylsulfonyl)methyl]-N-(5-phenyl-1,3,4-thiadiazol-2-yl)benzamide] | ≥ 50 |  |
| CN1CCN(CC(=O)Nc2cc(C(=O)Nc3nnc(-c4cccc(Cl)c4)s3)ccc2OC(F)(F)F)CC1 [Example 151, N-[5-(3-chlorophenyl)-1,3,4-thiadiazol-2-yl]-3-{[(4-methylpiperazin-1-yl)acetyl]amino}-4-(trifluoromethoxy)benzamide] | ≥ 50 |  |
| O=C(CN1CCN(C2CC2)CC1)Nc1cc(C(=O)Nc2ccc(-c3ccccc3F)nc2)ccc1OC(F)(F)F [Example 63, 3-{[(4-cyclopropylpiperazin-1-yl)acetyl]amino}-N-[6-(2-fluorophenyl)pyridin-3-yl]-4-(trifluoromethoxy)benzamide] | ≥ 50 |  |
| O=C(CN1CCOCC1)Nc1cc(NC(=O)c2ccc(-c3cc(F)cc(F)c3)nc2)ccc1OC(F)(F)F [Example 27, 6-(3,5-difluorophenyl)-N-{3-[(morpholin-4-ylacetyl)amino]-4-(trifluoromethoxy)phenyl}nicotinamide] | ≥ 50 |  |
| O=C(Nc1ccc(OC(F)(F)F)c(NC(=O)C2(N3CCOCC3)CC2)c1)c1ccc(-c2ccccc2)nc1 [Example 61, N-[3-({[1-(morpholin-4-yl)cyclopropyl]carbonyl}amino)-4-(trifluoromethoxy)phenyl]-6-phenylnicotinamide] | ≥ 50 |  |
| O=C(Nc1ccc(-c2ccccc2F)nc1)c1ccc(OC(F)(F)F)c(NC(=O)C2(N3CCN(C4CC4)CC3)CC2)c1 [Example 67, 3-({[1-(4-cyclopropylpiperazin-1-yl)cyclopropyl]carbonyl}amino)-N-[6-(2-fluorophenyl)pyridin-3-yl]-4-(trifluoromethoxy)benzamide] | ≥ 50 |  |
| CC(C(=O)Nc1cc(C(=O)Nc2ccc(-c3ccccc3F)nc2)ccc1OC(F)(F)F)N1CCN(C)CC1 (centres unmarked) [Example 64, N-[6-(2-fluorophenyl)pyridin-3-yl]-3-{[2-(4-methylpiperazin-1-yl)propanoyl]amino}-4-(trifluoromethoxy)benzamide] | ≥ 50 |  |
| O=C(Nc1nnc(-c2ccccc2)s1)c1ccc(OC(F)F)c(NC(=O)C2(N3CCN(C4CC4)CC3)CC2)c1 [Example 38, 3-({[1-(4-cyclopropylpiperazin-1-yl)cyclopropyl]carbonyl}amino)-4-(difluoromethoxy)-N-(5-phenyl-1,3,4-thiadiazol-2-yl)benzamide] | ≥ 50 |  |
| CC(C(=O)Nc1cc(C(=O)Nc2ccc(-c3ccc(N)cc3)nc2)ccc1OC(F)(F)F)N1CCOCC1 (centres unmarked) [Example 111, N-[6-(4-aminophenyl)pyridin-3-yl]-3-{[2-(morpholin-4-yl)propanoyl]amino}-4-(trifluoromethoxy)benzamide] | ≥ 50 |  |
| COCc1ccc(C(=O)Nc2nnc(-c3ccccc3)s2)cc1NC(=O)C1(N2CCN(C3CC3)CC2)CC1 [Example 44, 3-({[1-(4-cyclopropylpiperazin-1-yl)cyclopropyl]carbonyl}amino)-4-(methoxymethyl)-N-(5-phenyl-1,3,4-thiadiazol-2-yl)benzamide] | ≥ 50 |  |
| CC(=O)Nc1ccc(-c2ccc(NC(=O)c3ccc(OC(F)(F)F)c(NC(=O)C(C)N4CCOCC4)c3)cn2)cc1 (centres unmarked) [Example 113, N-[6-(4-acetamidophenyl)pyridin-3-yl]-3-{[2-(morpholin-4-yl)propanoyl]amino}-4-(trifluoromethoxy)benzamide] | ≥ 50 |  |
| O=C(CN1CCOCC1)Nc1cc(C(=O)Nc2ncc(-c3ccccc3)s2)ccc1OC(F)(F)F [Example 14, 3-[(morpholin-4-ylacetyl)amino]-N-(5-phenyl-1,3-thiazol-2-yl)-4-(trifluoromethoxy)benzamide] | ≥ 50 |  |
| COc1ccc(-c2ccc(C(=O)Nc3ccc(OC)c(NC(=O)CN4CCOCC4)c3)s2)cc1 [Example 35, N-{4-methoxy-3-[(morpholin-4-ylacetyl)amino]phenyl}-5-(4-methoxyphenyl)thiophene-2-carboxamide] | ≥ 50 |  |
| O=C(Nc1nnc(-c2ccccc2)s1)c1ccc(OC(F)F)c(NC(=O)C2(N3CCOCC3)CC2)c1 [Example 37, 4-(difluoromethoxy)-3-({[1-(morpholin-4-yl)cyclopropyl]carbonyl}amino)-N-(5-phenyl-1,3,4-thiadiazol-2-yl)benzamide] | ≥ 50 |  |
| O=C(CN1CCN(C2CC2)CC1)Nc1cc(C(=O)Nc2nnc(-c3ccccc3)s2)ccc1OC(F)F [Example 41, 3-{[(4-cyclopropylpiperazin-1-yl)acetyl]amino}-4-(difluoromethoxy)-N-(5-phenyl-1,3,4-thiadiazol-2-yl)benzamide] | ≥ 50 |  |
| O=C(Nc1nnc(-c2ccccc2)s1)c1ccc(OC(F)(F)F)c(NC(=O)C2(N3CCN(C4CC4)CC3)CC2)c1 [Example 51, 3-({[1-(4-cyclopropylpiperazin-1-yl)cyclopropyl]carbonyl}amino)-N-(5-phenyl-1,3,4-thiadiazol-2-yl)-4-(trifluoromethoxy)benzamide] | ≥ 50 |  |
| O=C(Nc1ccc(-c2ccccc2F)nc1)c1ccc(OC2CC2)c(NC(=O)C2(N3CCN(C4CC4)CC3)CC2)c1 [Example 136, 4-(cyclopropyloxy)-3-({[1-(4-cyclopropylpiperazin-1-yl)cyclopropyl]carbonyl}amino)-N-[6-(2-fluorophenyl)pyridin-3-yl]benzamide] | ≥ 50 |  |
| C[C@@H](C(=O)Nc1cc(C(=O)Nc2ccc(-c3ccccc3F)nc2)ccc1OC(F)(F)F)N1CCOCC1 (single isomer, unassigned) [Example 9, N-[6-(2-fluorophenyl)pyridin-3-yl]-3-{[(2S)-2-(morpholin-4-yl)propanoyl]amino}-4-(trifluoromethoxy)benzamide or N-[6-(2-fluorophenyl)pyridin-3-yl]-3-{[(2R)-2-(morpholin-4-yl)propanoyl]amino}-4-(trifluoromethoxy)benzamide] |  | IC50 ([1]; HEK293 FOP control cells, EC50 concentration of recombinant Wnt-3a, 16 hours): 8.2 µM |
| Cc1ccc(C(=O)Nc2ccc(-c3ccccc3F)nc2)cc1NC(=O)C1(N2CCOCC2)CC1 [Example 76, N-[6-(2-fluorophenyl)pyridin-3-yl]-4-methyl-3-({[1-(morpholin-4-yl)cyclopropyl]carbonyl}amino)benzamide] | ≥ 50 |  |
| O=C(CN1CCOCC1)Nc1cc(NC(=O)c2ccc(-c3cccc(F)c3F)nc2)ccc1OC(F)(F)F [Example 26, 6-(2,3-difluorophenyl)-N-{3-[(morpholin-4-ylacetyl)amino]-4-(trifluoromethoxy)phenyl}nicotinamide] | ≥ 50 |  |
| CC(C(=O)Nc1cc(C(=O)Nc2nnc(-c3ccccc3)s2)ccc1OC(F)(F)F)N1CCN(C)CC1 (centres unmarked) [Example 58, 3-{[2-(4-methylpiperazin-1-yl)propanoyl]amino}-N-(5-phenyl-1,3,4-thiadiazol-2-yl)-4-(trifluoromethoxy)benzamide] | ≥ 50 |  |
| C[C@@H](C(=O)Nc1cc(C(=O)Nc2ccc(-c3ccc(CO)cc3)nc2)ccc1OC(F)(F)F)N1CCOCC1 (single isomer, unassigned) [Example 120, N-{6-[4-(hydroxymethyl)phenyl]pyridin-3-yl}-3-{[(2S)-2-(morpholin-4-yl)propanoyl]amino}-4-(trifluoromethoxy)benzamide or N-{6-[4-(hydroxymethyl)phenyl]pyridin-3-yl}-3-{[(2R)-2-(morpholin-4-yl)propanoyl]amino}-4-(trifluoromethoxy)benzamide] |  | IC50 [2]: 0.105 µM; IC50 [3]: ≥ 50 µM |
